According to a melting point compilation (Tetko et al.):

| SMILES | melting point |
| --- | --- |
| O=C(O)c1csc(Br)c1 | 137 to 139 °C |
| CC(C)n1nnc(C(=O)O)c1C(F)(F)F | 99 to 101 °C |
| Clc1ccnc(-c2ccccc2)n1 | 69 to 71 °C |
| O=C1CC(c2ccccc2)=NN1c1ccccc1Br | 183 to 185 °C |
| Cc1nn(C)c(C(=O)O)c1[N+](=O)[O-] | 146 to 148 °C |
| O=C1c2ccc(S(=O)(=O)Cl)cc2CCC1Cl (stereo not given) | 124 to 126 °C |
| O=C(Nc1ncccn1)C1CCNCC1 | 146 to 148 °C |
| CCC(C)C(C(=O)O)c1ccccc1 (stereo not given) | 50 to 52 °C |
| CCc1n[nH]c(=O)c(C#N)c1CC | 166 to 168 °C |
| O=C(CCl)c1ccc2c(c1)CCCC2 | 62 to 64 °C |
| O=C1CCCCC1n1ccc([N+](=O)[O-])n1 (stereo not given) | 128 to 130 °C |
| CNc1ccc(Br)cn1 | 69 to 71 °C |
| O=Cc1cc[nH]n1 | 139 to 141 °C |
| O=[N+]([O-])c1ccc(OCc2ccco2)nc1 | 87 to 89 °C |
| O=C1COc2c(cccc2C(=O)O)N1 | 311 to 313 °C |
| CC(C)(C)c1ncccc1O | 159 to 161 °C |
| CC1=NN(c2cccc(C(F)(F)F)c2)C(=O)C1 | 127 to 129 °C |
| Cc1cccc(N2CCN(Cc3ccc(N)cc3)CC2)c1 | 103 to 105 °C |
| O=S(=O)(Nc1cccc(Cl)c1)c1ccc2oc(S)nc2c1 | 173 to 175 °C |

| SMILES | melting point |
| --- | --- |
| O=C(O)C1CCCN1C(=O)c1cc(Cl)ccc1Cl (stereo not given) | 194 to 196 °C |
| CC(C)CCNS(=O)(=O)c1ccc(N)cc1 | 119 to 121 °C |
| O=C(O)COc1ccc(Nc2ccccc2)cc1 | 138 to 142 °C |
| NC(=S)c1ccc(NC(=O)CC2CCCC2)cc1 | 195 to 197 °C |
| O=C1C=CC(=O)N1c1cccc(Cl)c1 | 86 to 88 °C |
| Nc1cc2c(cc1N)OCCO2 | 124 to 126 °C |
| Cc1ccc(S(=O)(=O)N2CCC(C(=O)O)CC2)c(C)c1 | 200 to 202 °C |
| CCN(CC)C(=O)Cn1cccc(C(=O)O)c1=O | 114 to 116 °C |
| Cc1cc(C)c(NC(=O)C(C)Cl)c(Cl)c1 (stereo not given) | 157 to 159 °C |
| O=[N+]([O-])c1ccc(Cl)c(S(=O)(=O)N2CCOCC2)c1 | 149 to 151 °C |
| CC(C)CNc1c(N)n(Cc2ccccc2)c(=O)[nH]c1=O | 211 to 213 °C |
| Nc1nnc(CC2CCCCC2)s1 | 250 to 252 °C |
| NNc1nc(C(F)(F)F)cs1 | 122 to 124 °C |
| O=C(O)CCN1C(=O)c2ccccc2S1(=O)=O | 164 to 166 °C |
| CCNc1nc(NCC)n2c(S)nnc2n1 | 98 to 100 °C |
| Nc1cc(C(F)(F)F)ccc1O | 115 to 117 °C |
| O=C(O)C1SCCc2sccc21 (stereo not given) | 148 to 150 °C |
| CC(C)(C(=O)O)C(O)c1cccc(OCc2ccccc2)c1 (stereo not given) | 125 to 127 °C |
| O=Cc1ccc(-c2cccc(Br)c2)o1 | 99 to 101 °C |

| SMILES | melting point |
| --- | --- |
| CC(C)(C)C(=O)N1CCc2cc(C(=O)O)ccc21 | 195 to 197 °C |
| Cc1cccc(C)c1CC(=O)O | 117 to 119 °C |
| N#CCC(=O)CCc1ccccc1 | 69 to 71 °C |
| N#Cc1ccc(N2CCN(c3ccccc3)CC2)nc1 | 131 to 133 °C |
| c1ccc(NCc2ccc3c(c2)OCO3)cc1 | 78 to 80 °C |
| O=C1c2ccccc2C(=O)N1CC1CN(Cc2ccccc2)CCO1 (stereo not given) | 136 to 138 °C |
| O=C(Nc1ccc(F)cc1F)OCC(F)(F)F | 72 to 74 °C |
| Cc1c(Cl)nc(N(C)C)nc1Cl | 54 to 56 °C |
| O=C(NCC(F)(F)F)c1cccc(S(=O)(=O)Cl)c1 | 83 to 85 °C |
| CC1CCc2c(sc3nc(S)n(Cc4ccco4)c(=O)c23)C1 (stereo not given) | 275 to 277 °C |
| NCCC(=O)Nc1ccc(C(N)=O)c(Cl)c1 | 264 to 266 °C |
| CC(=O)NC1CCC(N)CC1 (stereo not given) | 129 to 131 °C |
| Cc1ccc2c(CCl)cc(=O)oc2c1 | 170 to 172 °C |
| CN1CCN(C(=O)c2ccc(C#N)cn2)CC1 | 83 to 85 °C |
| CC(C)(C)C(O)C(=O)O (stereo not given) | 65 to 67 °C |
| O=C(O)Cc1csc(-c2ccc(Cl)cc2Cl)n1 | 159 to 161 °C |
| O=C(Nc1ccc(OC(F)(F)F)cc1)OCC(F)(F)F | 64 to 66 °C |
| CC(C)NS(=O)(=O)c1ccccc1CN | 79 to 81 °C |

Now from value to compound:

| melting point | SMILES |
| --- | --- |
| 111 to 113 °C | CN(C)C=C1C(=O)CCCC1=O |
| 224 to 226 °C | N#Cc1ccc(N2CCNC(=O)C2)cc1 |
| 170 to 172 °C | CCCCc1ccc(NS(=O)(=O)c2ccc(N)cc2OC)cc1 |
| 181 to 183 °C | Oc1cccc2cn[nH]c12 |
| 110 to 112 °C | COC(=O)Cc1cc(=O)n(C(C)(C)C)[nH]1 |
| 105 to 107 °C | O=C(O)C(=O)NCC(F)F |
| 229 to 231 °C | Cc1cc(C(=O)O)cc(S(C)(=O)=O)c1F |
| 157 to 159 °C | Cn1cc(Br)c([N+](=O)[O-])n1 |
| 175 to 177 °C | c1ccc(COc2ccc3[nH]ncc3c2)cc1 |
| 267 to 269 °C | O=C(O)c1ccc(-n2cccn2)nc1 |
| 137 to 139 °C | O=C(Nc1ccc(Cl)cn1)C1CCNCC1 |
| 142 to 144 °C | OCc1cn(-c2ccc(Cl)c(Cl)c2)nn1 |
| 179 to 181 °C | COC(=O)c1cc(=O)c2cc(Cl)ccc2[nH]1 |
| 177 to 179 °C | O=C(O)C1CC1C(=O)O (stereo not given) |
| 53 to 55 °C | CC(=O)c1sc(Cc2ccccc2)nc1C |
| 174 to 176 °C | CC(Nc1nc2ccccc2s1)C(=O)NN (stereo not given) |
| 136 to 138 °C | N#Cc1ccccc1NC(=O)c1ccccn1 |
| 188 to 190 °C | COc1ccc(C)cc1C1(C)NC(=O)N(CC(=O)O)C1=O (stereo not given) |
| 188 to 190 °C | CC(=O)Nc1cc(C(=O)CCl)ccc1O |
| 107 to 109 °C | CC(C)(C)OC(=O)N1CCCC1CC(=O)O (stereo not given) |
| 103 to 105 °C | COc1cc(CCC(=O)O)ccc1OCC(F)(F)F |
| 71 to 73 °C | CC(C)(C)c1ccc(CCCCC(=O)O)cc1 |

| melting point | SMILES |
| --- | --- |
| 202 to 204 °C | O=C(O)CN1CCC(CO)CC1 |
| 127 to 129 °C | Nc1cccc(S(=O)(=O)Nc2ccc(Cl)cc2)c1 |
| 111 to 113 °C | Cc1nc(-c2cc3c(s2)CCNC3)cs1 |
| 303 to 305 °C | O=C(O)c1ccc(S(=O)(=O)NC2CCS(=O)(=O)C2)cc1 (stereo not given) |
| 75 to 77 °C | CCOC(=O)C(NC(=O)C(C)C)C(=O)OCC |
| 183 to 185 °C | CCOc1cc(C(=O)N2CCCC(C(=O)O)C2)cc(OCC)c1OCC (stereo not given) |
| 45 to 47 °C | Cc1nccn1-c1ccc(CN)cn1 |
| 170 to 172 °C | O=C(CCl)Nc1nc2ccc(F)cc2s1 |
| 121 to 123 °C | Nc1cccc(C(=O)N2CCCCC2)c1 |
| 101 to 103 °C | Fc1ccc(-n2nc(CCl)c3c2CCC3)cc1 |
| 137 to 139 °C | COc1ccc(S(N)(=O)=O)cc1C |
| 319 to 321 °C | O=c1c2c([nH]c3ccc(Oc4ccccc4)cc13)CCCC2 |
| 115 to 130 °C | COc1ccc(S(=O)(=O)N2CCCCC2)cc1NC(=O)CCl |
| 75 to 77 °C | CCc1c(C(C)(C)C)noc1N |
| 241 to 243 °C | O=c1[nH]c(-c2ccc(Cl)cc2)co1 |
| 305 to 307 °C | Cc1nn2c(S)nnc2nc1O |
| 42 to 44 °C | Nc1ccc(OCc2ccccc2)nc1 |
| 184 to 186 °C | Cc1ccc(-n2nnc(C(=O)O)c2C)cc1 |
| 101 to 104 °C | CCC(C)NC(=O)c1ccc(N)cc1 (stereo not given) |
| 19 to 21 °C | Cc1cccc([N+](=O)[O-])c1F |
| 127 to 129 °C | NC(=NO)c1cccc(OCc2cccnc2)c1 |
| 100 to 102 °C | CC(Cl)C(=O)NCc1ccc(Cl)cc1 (stereo not given) |
